Data on four molecules can be found in US20220323614A1, “KRAS-SPECIFIC CYCLIC PEPTIDES, COMPOSITIONS, AND METHODS OF USING AND MAKING” (Indi Molecular, Inc., priority 2021, published 2022).

One data set has as its target T1, KRAS (G12D) (Homo sapiens, UniProt P01116, G12D).
T1 construct: decreasing or depleting levels of KRAS (G12D) in pancreatic cancer cells; endogenous in cells
In words: Western blot of KRAS (G12D) levels in pancreatic cell lysate. Format: cell-based. The settings on record: pancreatic cancer cells incubated with the peptide. An excerpt:
The disclosed cyclic peptides can be used, for example, in methods for inhibiting the KRAS (G12D) oncoprotein. Such methods can include treating cancer cells having the KRAS (G12D) mutation. […] In some forms, a cyclic peptide of Formula I can be used to inhibit KRAS (G12D) expressed in any cancer cell. For example, the KRAS (G12D) oncoprotein has been identified in pancreatic, colorectal, lung, biliary tract, and ovarian cancer cells.

Data set [1] in a line: mouse pharmacokinetics of Indi-199 by IV, IP and PO. Format: in vivo. The note with it: for half-life: read-out: T½ (converted). An excerpt: FIG. 14 is a graph of mouse pharmacokinetics of Indi-199, an example of the disclosed cyclic peptides, by different administration routes (IV, IP, and PO).
A short description of data set [2]: tolerability of Indi-199 in PBS. Format: in vivo, mouse. The settings on record: simple formulation (PBS).
Data set [3] deals with AsPC1 (G12D mutant) cell line, BxPC3 (wild type), and SW 1990 (G12D mutant). The settings on record: confocal microscopy, Streptavidin-phycoerythrin (PE) visualization. How it is done:
A biotinylated KRAS(G12D) targeted cyclic peptide and an equivalent agent with membrane targeting capability were tested for membrane association using confocal microscopy. Binding to AsPC1 (G12D mutant) cell line, BxPC3 (wild type), and SW 1990 (G12D mutant) were compared.

Data set [4] deals with AsPC-1 (G12D) and BxPC-3 (WT). The data set is described as follows: spheroid proliferation assay using CellTiter-Glo Assay. In kind it is cell-based. How it is done: FIGS. 2A-2B are graphs of spheroid proliferation assay of AsPC-1 (G12D) and BxPC-3 (WT) using CellTiter-Glo Assay. […] The ligand assayed was Ac-wkyf-Lys(Pal) (SEQ ID NO:46). BxPC-3 and AxPC-1 were cultured as spheroids to compare the cell viability to that observed under adherent conditions. […] These conditions more closely parallel the tumor microenvironment.

For another data set, the system named is pERK in AsPC-1 cells. In words: pERK levels in AsPC-1 cells, Western blot normalized to tubulin (pERK_G12D). The settings on record: FIG. 3, incubated for 12 hours. In kind it is cell-based. The method, then: FIG. 3 is a graph of pERK levels measured in BxPC-3 cells (first eight bars) and AsPC-1 cells (last eight bars) in the presence of different ligands or controls. For each cell type, the graph bars are, from left to right: cell only, DMSO 1.25%, BI-2852, KRpep-2d, NH2-wkyf (SEQ ID NO:46), Ac-wkyf (SEQ ID NO:46), Pal-wkyf (SEQ ID NO:46), Ac-wkyf-Lys(Pal) (SEQ ID NO:46). The levels of pERK are normalized to tubulin. The cells were grown overnight, treated with the ligands, incubated for 12 hours, lysed, gel electrophoresed, and Western blotted. Phosphorylation of ERK is a KRAS-dependent signaling target. […] BI-2852 and Krpep-2d are two positive controls developed by Boehringer Ingelheim and Takeda.
FIG. 5 is a graph of pERK inhibition in BxPC-3 cells (first eight bars) and AsPC-1 cells (last eight bars) in the presence of the substituted ligands of FIG. 3. For each cell type, the graph bars are, from left to right: DMSO 0.5%, KRpep-2d, Ac-wkyf-Lys(Pal) (SEQ ID NO:46), Ac-w(Dab)yf-Lys(Pal), Ac-wk(4-Br-f)f-Lys(Pal), Ac-wky(4-Br-f)-Lys(Pal), Ac-wky(2-Nal)-Lys(Pal), wkyf (SEQ ID NO:46).
Tables 15A-15E provide a summary of the activity and effects of various of the disclosed wkyf-based cyclic peptides. […] MTT_G12D used AsPc-1 at 5 μM. MTT_WT used BxPC-3 at 5 μM. pERK_G12D used AsPC-1 at 4 μM for 12 hours. pERK_WT used BxPC-3 at 4 μM for 12 hours.

Setting [5] is: in vivo, mouse, 20 mg/kg IP, 4 mg/mL in PBS.
Setting [6] is: in vivo, mouse, 20 mg/kg IV bolus, 4 mg/mL in PBS.
The mark [7] stands for this setting: in vivo, mouse, 50 mg/kg PO, 5 mg/mL in PBS.

Like-named read-outs stand apart in the source and are kept apart here. Where a SMILES comes first, the peptide text is derived from it. Bridges are numbered along the chain shown (N, C = ends). Triazole bridges read from a SMILES are 1,4-linked. Where no end group is shown, it is not given here. [ ]: non-standard residue; d: D form. The star is where a group is joined. Phe(4-guanidino) = N=C(N)Nc1ccc(C[C@H](N)C(=O)O)cc1; dLys(N3) = [N-]=[N+]=NCCCC[C@@H](N)C(=O)O; dPhe(4-Cl) = N[C@H](Cc1ccc(Cl)cc1)C(=O)O; Lys(N3) = [N-]=[N+]=NCCCC[C@H](N)C(=O)O; Morpholinoacetyl = O=C(CN1CCOCC1)*; Palmitoyl = CCCCCCCCCCCCCCCC(=O)*; dPra = C#CC[C@@H](N)C(=O)O; Pra = C#CC[C@H](N)C(=O)O

“QNGnfY (QN[Phe(4-guanidino)]Y; also: cyclic, closure not given here, D-amino acids, places not given here)”: the “levels of KRAS (G12D)” value in the data set with KRAS (G12D) was “capable of decreasing or depleting levels of KRAS (G12D)”.
For `CCCCCCCCCCCCCCCC(=O)NCCCC[C@H](NC(=O)[C@@H]1CCCCn2cc(nn2)C[C@H](NC(=O)CN2CCOCC2)C(=O)N[C@H](Cc2c[nH]c3ccccc23)C(=O)N[C@H](CCCCN)C(=O)N[C@H](Cc2ccc(O)cc2)C(=O)N[C@H](Cc2ccc(Cl)cc2)C(=O)N1)C(N)=O` [Indi-199] (Morpholinoacetyl-[Pra][dW][dK][dY][dPhe(4-Cl)][Lys(N3)]K(Palmitoyl)-NH2; triazole 1-6), in data set [1] (setting [5]), the AUC(0-inf) was 316 µM·h, the AUC(0-t) turned out to be 213 µM·h, the highest concentration (Cmax) came out at 12 µM and the Tmax came to 6 h. In addition, in data set [1] (in vivo, mouse, 20 mg/kg IP, 4 mg/mL in PBS, terminal elimination phase inadequately defined), the half-life is 13.4 h. For the same molecule, in data set [1] (setting [6]), the AUC(0-inf) was determined as 403 µM·h, the AUC(0-t) was 402 µM·h, the peak level (Cmax) was 252 µM and the Tmax was determined as 0 h. In addition, in data set [1] (setting [6]), the clearance turned out to be 0.587 mL/min/kg and the half-life is 2.72 h. In addition, the Vd in data set [1] (in vivo, mouse, 20 mg/kg IV bolus, 4 mg/mL in PBS, read-out: Vdss) was determined as 0.0976 L/kg. In data set [1] (setting [7]), the AUC(0-t) amounted to 0.182 µM·h, the peak level (Cmax) was 0.033 µM, the Tmax stood at 4 h and the bioavailability came to 0.018%. Further, the exposure entry in data set [1] (iv and ip administration, FIG. 14) is “sustained exposure”. Further, in data set [2], the tolerability entry was “well tolerated”.
With Biotin-wky(4-Cl-F)-Lys(Pal), in data set [3], the membrane association entry is recorded as “demonstrated membrane association”.
Turning to `CCCCCCCCCCCCCCCC(=O)NCCCC[C@@H](NC(=O)[C@H]1CCCCn2cc(nn2)C[C@@H](NC(C)=O)C(=O)N[C@@H](Cc2c[nH]c3ccccc23)C(=O)N[C@@H](CCCCN)C(=O)N[C@@H](Cc2ccc(O)cc2)C(=O)N[C@@H](Cc2ccccc2)C(=O)N1)C(N)=O` [Ac-wkyf-Lys(Pal)] (Ac-[dPra]WKYF[dLys(N3)][dK](Palmitoyl)-NH2; triazole 1-6), in data set [4] (FIG. 2B, spheroid vs adherent culture, AsPC-1 (G12D) vs BxPC-3 (WT)), the “selectivity under spheroid culturing” value is recorded as “selectivity persist under spheroid culturing”. Further, the “reduction of cell viability, spheroid compared to adherent conditions” value in data set [4] (FIGS. 2A-2B, CellTiter-Glo) is “more effective at reducing cell viability”. Further, the pERK inhibitory effect result with pERK in AsPC-1 cells is on record as “most inhibitory effects”.
